Data: publication PMC10141580, “Cyclic Dichalcogenides Extend the Reach of Bioreductive Prodrugs to Harness Thiol/Disulfide Oxidoreductases: Applications to seco-Duocarmycins Targeting the Thioredoxin System” (ACS Central Science, 2023)
pIC50: −log10 of the molar value. Where “and” joins values, the source holds several entries; their conditions need not be identical. Equal entries are not always repeated. Where two headings read alike, the source gives them in different places.

Test system: panel of 140 standard cancer cell lines
Assay: ProliFiler-140 cancer cell line screen (CellTiterGlo, 72 h)
Format: cell-based
Details: for IC50: read-out: IC50 [M] (ProliFiler-140); for pIC50: read-out: IC50
Description: Incubations were performed for 72 h before automated viability readout with CellTiterGlo (Figure 8).
End of Figure S11 (part 5 of 5): ProliFiler-140 cancer cell line screening for cytotoxicity of the prodrugs.
8-data-point dose response curves from CellTiter-Glo® viability readout.
ProliFiler-140 cell line panel part V

## COc1cc2cc(C(=O)N3C[C@@H](CCl)c4c3cc(OC(=O)N(CCC(=O)N3CCN(C)CC3)C3CCCCC3)c3ccccc43)[nH]c2c(OC)c1OC [P-CC60-CBI-TMI]
MEC-1 (Blood)
  IC50: 8.9e-08 M and 8.89e-08 M
MKN-1 (Stomach)
  IC50: 1.5e-06 M and 1.53e-06 M
MKN-45 (Stomach)
  IC50: 4.87e-07 M and 4.9e-07 M
MOLM-13 (Blood)
  IC50: 6.1e-08 M and 6.05e-08 M
MOLT-4 (Blood)
  IC50: 7.6e-08 M and 7.57e-08 M
MV4-11 (Blood)
  IC50: 1.2e-08 M and 1.18e-08 M
Mia PaCA 2 (Pancreas)
  IC50: 3.75e-07 M and 3.8e-07 M
NALM-6 (Blood)
  IC50: 5.58e-08 M and 5.6e-08 M
NCI-H82 (Lung)
  IC50: 7.5e-07 M
NCI-H292 (Lung)
  IC50: 2.6e-07 M and 2.59e-07 M
NCI-H441 (Lung)
  IC50: 2.94e-07 M and 2.9e-07 M
NCI-H838 (Lung)
  IC50: 7.5e-07 M and 7.54e-07 M
NCI-H1048 (Lung)
  IC50: 5.9e-08 M and 5.92e-08 M
NCI-H1437 (Lung)
  IC50: 3.01e-07 M and 3e-07 M
NCI-H1563 (Lung)
  IC50: 1.7e-06 M and 1.69e-06 M
NCI-H1573 (Lung)
  IC50: 1.1e-06 M and 1.07e-06 M
NCI-H1581 (Lung)
  IC50: 4.32e-07 M and 4.3e-07 M
NCI-H1703 (Lung)
  IC50: 8.1e-07 M and 8.15e-07 M
NCI-H1838 (Lung)
  IC50: 8.2e-07 M and 8.19e-07 M
NCI-H2009 (Lung)
  IC50: 4.22e-07 M and 4.2e-07 M
NCI-H2110 (Lung)
  IC50: 1.4e-07 M and 1.44e-07 M
NCI-H2286 (Lung)
  IC50: 1.2e-07 M and 1.25e-07 M
NCI-N87 (Stomach)
  IC50: 1.1e-06 M and 1.15e-06 M
OCI-AML3 (Blood)
  IC50: 1.3e-07 M and 1.33e-07 M
OCI-AML5 (Blood)
  IC50: 3.4e-08 M and 3.39e-08 M
OCI-LY19 (Blood)
  IC50: 1.53e-08 M and 1.5e-08 M
OPM-2 (Blood)
  IC50: 6.61e-07 M and 6.6e-07 M
OV56 (Ovary)
  IC50: 2.02e-07 M and 2e-07 M
OVCAR-3 (Ovary)
  IC50: 1e-06 M and 1.02e-06 M
OVCAR-3
  pIC50: 6.00
OVK18 (Ovary)
  IC50: 2e-07 M
P31/FUJ (Blood)
  IC50: 1.9e-07 M and 1.88e-07 M
PANC-1 (Pancreas)
  IC50: 1.4e-06 M and 1.38e-06 M
PC3 (Prostate)
  IC50: 5.17e-07 M and 5.2e-07 M
PC-9 (Lung)
  IC50: 1.1e-07 M and 1.14e-07 M
RERF-LC-Ad2 (Lung)
  IC50: 7.8e-07 M and 7.84e-07 M
RERF-LC-MS (Lung)
  IC50: 4.59e-07 M and 4.6e-07 M
RKO (Colon)
  IC50: 2.98e-07 M and 3e-07 M
RL95-2 (Endometrium)
  IC50: 7.43e-07 M and 7.4e-07 M
RPMI 8226 (Blood)
  IC50: 3.38e-07 M and 3.4e-07 M
RPMI 8226
  pIC50: 6.47
SCH (Stomach)
  IC50: 3.9e-07 M and 3.87e-07 M
SCLC-21H (Lung)
  IC50: 1.58e-07 M and 1.6e-07 M
SJSA-1 (Bone)
  IC50: 3.78e-07 M and 3.8e-07 M
SK-BR-3 (Breast)
  IC50: 3.7e-07 M
SK-ES-1 (Bone)
  IC50: 3.35e-08 M and 3.4e-08 M
SK-LU-1 (Lung)
  IC50: 1.6e-07 M and 1.62e-07 M
SK-MEL-3 (Skin)
  IC50: 1e-06 M and 1.03e-06 M
SK-N-FI (Brain)
  IC50: 6.81e-07 M and 6.8e-07 M
SK-N-MC (Brain)
  IC50: 1.3e-08 M and 1.33e-08 M
SK-N-SH (Brain)
  IC50: 7.5e-07 M and 7.45e-07 M
SK-OV3 (Ovary)
  IC50: 4.38e-07 M and 4.4e-07 M
SK-OV3
  pIC50: 6.36
SNU840 (Ovary)
  IC50: 6.99e-08 M and 7e-08 M
SNU-1 (Stomach)
  IC50: 2.3e-07 M and 2.27e-07 M
SNU-16 (Stomach)
  IC50: 7.09e-07 M and 7.1e-07 M
SNU-216 (Stomach)
  IC50: 1.84e-06 M and 1.8e-06 M
SU-DHL-5 (Blood)
  IC50: 5e-08 M and 4.98e-08 M
SW480 (Colon)
  IC50: 3.31e-07 M and 3.3e-07 M
SW620 (Colon)
  IC50: 6.99e-07 M and 7e-07 M
SW948 (Colon)
  IC50: 6.79e-07 M and 6.8e-07 M
SW-1783 (Brain)
  IC50: 4.78e-07 M and 4.8e-07 M
Saos-2 EC (Bone)
  IC50: 2.34e-07 M and 2.3e-07 M
SiHa (Ovary)
  IC50: 6.13e-07 M and 6.1e-07 M
T84 (Colon)
  IC50: 9.09e-07 M and 9.1e-07 M
T98G (Brain)
  IC50: 6.6e-07 M
T-47D (Breast)
  IC50: 1e-06 M and 1.04e-06 M
T-47D
  pIC50: 6.00
U2OS (Bone)
  IC50: 1.31e-07 M and 1.3e-07 M
U87MG (Brain)
  IC50: 1.2e-06 M and 1.22e-06 M
U118MG (Brain)
  IC50: 3.92e-07 M and 3.9e-07 M
U251MG (Brain)
  IC50: 2e-06 M
U-266 (Blood)
  IC50: 1.41e-07 M and 1.4e-07 M
U-937 (Blood)
  IC50: 7.39e-08 M and 7.4e-08 M
ZR-75-1 (Breast)
  IC50: 1.42e-06 M and 1.4e-06 M
  IC50: 2.36e-07 M and 2.4e-07 M
